Source: patent US20080242622A1, “Identification of genetic alterations that modulate drug sensitivity in cancer treatments” (Cold Spring Harbor Laboratory, priority 2007, published 2008)
“And” between values parts separate entries of the source, which are not always exact repeats. Equal entries are not always repeated.

Experiments:
[1] = tested on: shTop1 2215 relapsed tumor #4 cells; test: Ex vivo viability of relapsed tumor cells (propidium iodide exclusion flow cytometry); type: cell-based, mice; conditions: treated ex-vivo for 24 hours
Excerpt: Viability, measured by propidium iodide exclusion flow cytometry, is plotted relative to untreated cells.

[2] = tested on: Eμ-Myc Arf^−/− lymphoma cells; test: Apoptotic response / in vitro viability of lymphoma cells to doxorubicin; type: cell-based, murine; conditions: Mus musculus; apoptotic response within 24 hours
Method: Competition and viability assays were performed according to the following protocols. 2 days post infection, lymphoma cells were split into replicate wells of 500,000 cells in 12 well plates. Following 24 hour treatments with a range of drug doses, the GFP positive percentage was quantified in the surviving cell population using a BD LSRII flow cytometer. The live cell population was gated via a forward scatter (FSC) versus side scatter (SSC) plotting. […] For in vitro cell viability assays, lymphoma cells were treated in triplicate at the indicated doses of doxorubicin/camptothecin. Viability was determined after 24 hours by an FSC versus SSC gate and plotted relative to untreated viability.

[3] = congestive heart failure, dilated cardiomyopathy, death; cited from earlier work

## N.N.[Cl][Pt][Cl] [cisplatin]
[1]
  drug resistance of Top2A down-regulated relapse compared to control primary tumor: not cross-resistance to cisplatin

## COc1cccc2c1C(=O)c1c(O)c3c(c(O)c1C2=O)C[C@@](O)(C(=O)CO)C[C@@H]3O[C@H]1C[C@H](N)[C@H](O)[C@H](C)O1 [doxorubicin]
[2]
  IC50: ~0.007 µg/mL and ~16 nM
[1]
  drug resistance of Top2A down-regulated relapse compared to control primary tumor: doxorubicin resistance
[3]
  cumulative dose at which risks of cardiac side effects dramatically increase: ≥ 550 mg/m^2
